Test results as given in patent publication US20180207111A1, “IMMUNOTHERAPY FOR CASR-EXPRESSING CANCER (E.G. NEUROBLASTOMA)” (HOSPITAL SANT JOAN DE DEU, priority 2015, published 2018).

How the values were obtained:
LA-N-1 xenografts [1] = assay: Genome-wide expression analysis of xenografts, Affymetrix Human Gene Array 2.1 ST; assay type: in vivo
Description: (§1) Total RNA was isolated from 8 xenografts exposed to Cinacalcet (C) and 8 from the control group (V). These were the last 8 tumors excised in each group, so that analyzed xenografts were those exposed to the longest period of treatment (V5-V12 and C4-C11). Two different mRNA expression analyses were conducted: Genome-wide expression analysis by microarrays (Example 3) and by RT-qPCR (Example 4).
Genome-wide expression analyses were performed using Affymetrix Human and Mouse Gene Array 2.1 ST (Affymetrix, reference number 902136 for human gene array and 902120 for mouse gene array) as per manufacturer's protocol. Procedures to analyze results included: Quality control of the arrays (following this step, xenograft C6 was removed from further analyses); filtering and normalization; selection of differentially expressed genes; single comparison (treated versus control samples); list of differentially expressed genes ranked by significance; Volcano plots showing the most differentially expressed genes; heatmaps of the clustered expression profiles; and analysis of biological significance through enrichment analysis against the Gene Ontologies, KEGG (Kyoto Encyclopedia of Genes and Genomes) and Ingenuity pathways.
However, these differences of gene expression were not statistically significant, adjusted P-value >0.05 (Table 3). Nonetheless, in this first analysis, corresponding to heatmap on FIG. 3, it was apparent that a group of genes were specifically modulated in the three tumors exposed to Cinacalcet for the longest period of time. This was confirmed by a second genome-wide expression analysis that examined differentially expressed genes in these three specimens (C9-C11) compared to the 8 vehicle-treated tumors (V5-V12) (FIG. 4).

LA-N-1 xenografts [2] = assay: RT-qPCR mRNA expression in xenografts; assay type: in vivo, human
Description: as §1
Validation of microarrays data was conducted by means of RT-qPCR. This technique was performed using SYBRgreen and specific primers or Taqman technology and gene-specific Assays-on-Demand (Applied Biosystems) (Table 1). This technique was also used to analyze the expression of other CTAs (members of the MAGE family and CTCFL), genes associated with differentiation and calcium-signaling pathways in further detail. Upregulation of CTCFL (FIG. 5A), MAGE A2, MAGE A3 and SSX4/48 (FIG. 5B), NTRK3 (FIG. 5C), ADCY8, PRKCA and RYR2 (FIG. 5D) was detected mainly in the two specimens exposed for the longest time to Cinacalcet (C10-C11).

[3] = three longest-treated xenografts C9-C11 vs vehicle V5-V12, adjusted P 0.00986984
[4] = three longest-treated xenografts C9-C11 vs vehicle V5-V12, adjusted P 0.01746325
[5] = three longest-treated xenografts C9-C11 vs vehicle V5-V12, adjusted P 0.01874439
[6] = three longest-treated xenografts C9-C11 vs vehicle V5-V12, adjusted P 0.02269447
[7] = three longest-treated xenografts C9-C11 vs vehicle V5-V12, adjusted P 0.0249218
[8] = three longest-treated xenografts C9-C11 vs vehicle V5-V12, adjusted P 0.04520061
[9] = three longest-treated xenografts C9-C11 vs vehicle V5-V12, adjusted P 0.04907024
[10] = three longest-treated xenografts C9-C11 vs vehicle V5-V12, adjusted P 0.05146784
[11] = xenografts C4, C5, C7-C11 vs vehicle V5-V12, 10 mg/kg/day oral, adjusted P 0.35366385
[12] = xenografts C4, C5, C7-C11 vs vehicle V5-V12, 10 mg/kg/day oral, adjusted P 0.52209349
[13] = xenografts C4, C5, C7-C11 vs vehicle V5-V12, 10 mg/kg/day oral, adjusted P 0.61235652
[14] = xenografts, RT-qPCR, mainly in C10-C11 (longest exposure), FIG. 5B
[15] = xenografts, RT-qPCR, mainly in C10-C11 (longest exposure), FIG. 5D

C[C@@H](NCCCc1cccc(C(F)(F)F)c1)c1cccc2ccccc12 [Cinacalcet]
Log fold change, probe 17104825 (CXorf49//CXorf49B) (LA-N-1 xenografts [1]; three longest-treated xenografts C9-C11 vs vehicle V5-V12, adjusted P 0.00358764): 1.857
Log fold change, probe 16695923 (FAM78B) (LA-N-1 xenografts [1]; [3]): 1.543
Log fold change, probe 17070589 (CNBD1) (LA-N-1 xenografts [1]; [3]): 1.801
Log fold change, probe 17103272 (SSX4B//SSX4) (LA-N-1 xenografts [1]; [3]): 1.389
Log fold change, probe 17104821 (CXorf49//CXorf49B) (LA-N-1 xenografts [1]; [3]): 2.714
Log fold change, probe 16972634 (LOC285500) (LA-N-1 xenografts [1]; three longest-treated xenografts C9-C11 vs vehicle V5-V12, adjusted P 0.01361569): 1.359
Log fold change, probe 17103626 (GAGE12G//GAGE12F//GAGE12I//GAGE7//... GAGE family, Entrez 645073) (LA-N-1 xenografts [1]; three longest-treated xenografts C9-C11 vs vehicle V5-V12, adjusted P 0.01682153): 2.202
Log fold change, probe 17103647 (GAGE2A//GAGE2C//GAGE2B//GAGE2D//... GAGE family, Entrez 729447) (LA-N-1 xenografts [1]; [4]): 2.059
Log fold change, probe 17103679 (GAGE2A//GAGE2C//GAGE12G//GAGE12F//... GAGE family, Entrez 729447) (LA-N-1 xenografts [1]; [4]): 2.03
Log fold change, probe 16837128 (PRKCA) (LA-N-1 xenografts [1]; [5]): 1.165
Log fold change, probe 16926807 (CECR7) (LA-N-1 xenografts [1]; [5]): 1.23
Log fold change, probe 17103653 (GAGE12C//GAGE12D//GAGE12E//GAGE12G//... GAGE family, Entrez 729422) (LA-N-1 xenografts [1]; [5]): 2.183
Log fold change, probe 17103655 (GAGE12C//GAGE12D//GAGE12E//GAGE12H//... GAGE family, Entrez 729422) (LA-N-1 xenografts [1]; [5]): 2.032
Log fold change, probe 17103673 (GAGE12G//GAGE12C//GAGE12D//GAGE12E//... GAGE family, Entrez 645073) (LA-N-1 xenografts [1]; [5]): 1.962
Log fold change, probe 16982161 (PDLIM3) (LA-N-1 xenografts [1]; [6]): 1.187
Log fold change, probe 16986694 (SPZ1) (LA-N-1 xenografts [1]; [6]): 1.239
Log fold change, probe 17103614 (GAGE12J//GAGE2D//GAGE2E//GAGE8//... GAGE family, Entrez 729396) (LA-N-1 xenografts [1]; [6]): 1.853
Log fold change, probe 17103620 (GAGE13//GAGE12D//GAGE12E//GAGE12B//... GAGE family, Entrez 645051) (LA-N-1 xenografts [1]; [6]): 2.07
Log fold change, probe 17103690 (GAGE12H//GAGE12C//GAGE12D//GAGE12E//... GAGE family, Entrez 729442) (LA-N-1 xenografts [1]; [6]): 1.931
Log fold change, probe 17110576 (SSX4//SSX4B) (LA-N-1 xenografts [1]; [6]): 1.272
Log fold change, probe 16938527 (RBMS3) (LA-N-1 xenografts [1]; three longest-treated xenografts C9-C11 vs vehicle V5-V12, adjusted P 0.02361429): 1.243
Log fold change, probe 16711753 (PROSER2-AS1) (LA-N-1 xenografts [1]; [7]): 1.36
Log fold change, probe 16838249 (LOC100507351) (LA-N-1 xenografts [1]; [7]): 1.078
Log fold change, probe 17111994 (RGAG4) (LA-N-1 xenografts [1]; [7]): 1.076
Log fold change, probe 17113928 (TENM1) (LA-N-1 xenografts [1]; three longest-treated xenografts C9-C11 vs vehicle V5-V12, adjusted P 0.03166044): 1.577
Log fold change, probe 16679142 (RYR2) (LA-N-1 xenografts [1]; three longest-treated xenografts C9-C11 vs vehicle V5-V12, adjusted P 0.04211565): 1.356
Log fold change, probe 17043613 (LOC100505938) (LA-N-1 xenografts [1]; three longest-treated xenografts C9-C11 vs vehicle V5-V12, adjusted P 0.04288827): 1.14
Log fold change, probe 16970118 (SYNPO2) (LA-N-1 xenografts [1]; [8]): 1.722
Log fold change, probe 17115014 (GABRA3) (LA-N-1 xenografts [1]; [8]): 1.248
Log fold change, probe 16732397 (POU2F3) (LA-N-1 xenografts [1]; three longest-treated xenografts C9-C11 vs vehicle V5-V12, adjusted P 0.0462006): 1.148
Log fold change, probe 16752147 (NEUROD4) (LA-N-1 xenografts [1]; [9]): 1.009
Log fold change, probe 16928510 (SEZ6L) (LA-N-1 xenografts [1]; [9]): 1.17
Log fold change, probe 16812942 (NTRK3) (LA-N-1 xenografts [1]; [10]): 1.186
Log fold change, probe 16920617 (CTCFL) (LA-N-1 xenografts [1]; [10]): 1.866
Log fold change, probe 16837226 (SNORA38B) (LA-N-1 xenografts [1]; [11]): 1.107
Log fold change, probe 16902703 (POTEF) (LA-N-1 xenografts [1]; [11]): 1.124
Log fold change, probe 17103626 (GAGE12G//GAGE12F//GAGE12I//GAGE7//... GAGE family, Entrez 645073) (LA-N-1 xenografts [1]; xenografts C4, C5, C7-C11 vs vehicle V5-V12, 10 mg/kg/day oral, adjusted P 0.39648602): 1.489
Log fold change, probe 17103647 (GAGE2A//GAGE2C//GAGE2B//GAGE2D//... GAGE family, Entrez 729447) (LA-N-1 xenografts [1]; xenografts C4, C5, C7-C11 vs vehicle V5-V12, 10 mg/kg/day oral, adjusted P 0.4625512): 1.341
Log fold change, probe 17103679 (GAGE2A//GAGE2C//GAGE12G//GAGE12F//... GAGE family, Entrez 729447) (LA-N-1 xenografts [1]; xenografts C4, C5, C7-C11 vs vehicle V5-V12, 10 mg/kg/day oral, adjusted P 0.47520907): 1.318
Log fold change, probe 17103614 (GAGE12J//GAGE2D//GAGE2E//GAGE8//... GAGE family, Entrez 729396) (LA-N-1 xenografts [1]; [12]): 1.191
Log fold change, probe 17103620 (GAGE13//GAGE12D//GAGE12E//GAGE12B//... GAGE family, Entrez 645051) (LA-N-1 xenografts [1]; [12]): 1.314
Log fold change, probe 17103653 (GAGE12C//GAGE12D//GAGE12E//GAGE12G//... GAGE family, Entrez 729422) (LA-N-1 xenografts [1]; [12]): 1.354
Log fold change, probe 17103655 (GAGE12C//GAGE12D//GAGE12E//GAGE12H//... GAGE family, Entrez 729422) (LA-N-1 xenografts [1]; [12]): 1.313
Log fold change, probe 17103673 (GAGE12G//GAGE12C//... GAGE family, Entrez 645073) (LA-N-1 xenografts [1]; [12]): 1.257
Log fold change, probe 17103690 (GAGE12H//GAGE12C//GAGE12D//GAGE12E//... GAGE family, Entrez 729442) (LA-N-1 xenografts [1]; [12]): 1.261
Log fold change, probe 16920617 (CTCFL) (LA-N-1 xenografts [1]; [13]): 1.137
Log fold change, probe 17104821 (CXorf49//CXorf49B) (LA-N-1 xenografts [1]; [13]): 1.423
Increase in relative mRNA expression of GAGE mRNA (LA-N-1 xenografts [2]; xenograft specimen C11, long-term treatment, data not shown): up to 100 fold
Relative mRNA expression of CTCFL (LA-N-1 xenografts [2]; xenografts, RT-qPCR, mainly in C10-C11 (longest exposure), FIG. 5A): Upregulation
Relative mRNA expression of MAGE A2 (LA-N-1 xenografts [2]; [14]): Upregulation
Relative mRNA expression of MAGE A3 (LA-N-1 xenografts [2]; [14]): Upregulation
Relative mRNA expression of SSX4/48 (LA-N-1 xenografts [2]; [14]): Upregulation
Relative mRNA expression of NTRK3 (LA-N-1 xenografts [2]; xenografts, RT-qPCR, mainly in C10-C11 (longest exposure), FIG. 5C): Upregulation
Relative mRNA expression of ADCY8 (LA-N-1 xenografts [2]; [15]): Upregulation
Relative mRNA expression of PRKCA (LA-N-1 xenografts [2]; [15]): Upregulation
Relative mRNA expression of RYR2 (LA-N-1 xenografts [2]; [15]): Upregulation
